Test systems include HCT-15; HT-29; A549; NCI-H460; U-251; DU-145; NCI/ADR-RES; SR; SK-OV-3; MDA-MB-435; T47D; MCF7; PC-3; SF-268; HCT-116; M19-MEL; DMS-114; DMS-273; DLD-1.
What all share (experiment): growth of human tumour cells (NCI), 48 h

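Where inhibition never reached the appropriate level, the endpoint shown equals the highest concentration tested. Otherwise, values were interpolated linearly from a five-concentration, 48-hour dose response in 96-well plates. At the GI50, growth is halved.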 Active and inactive are the calls of the source. Rule as the data show it: active = GI50 up to about 1.1 µM and inactive = higher.

With `CN(C)CCNCCN`, the GI50 with HCT-15 was > 100 µM; in the experiment on HT-29 it was > 100 µM (inactive); with A549, > 100 µM (inactive); in the experiment on NCI-H460, > 100 µM (inactive); in the experiment with U-251, > 100 µM (inactive); in the experiment with DU-145, > 100 µM (inactive). Further, the GI50 with NCI/ADR-RES, in the experiment on SR, in the experiment with SK-OV-3, in the experiment with MDA-MB-435, with T47D and in the experiment on MCF7 was > 100 µM (inactive) in each case. The GI50 in the experiment with PC-3, in the experiment on SF-268 and in the experiment on HCT-116 was > 100 µM (inactive) throughout.

With `CC(=O)c1cccc(C)c1C(=O)O`, the GI50 in the experiment on HCT-15 was > 100 µM; with HT-29, > 100 µM (inactive); with A549 it was > 100 µM (inactive); in the experiment with NCI-H460 it was > 100 µM (inactive); in the experiment on U-251 it was > 100 µM (inactive); with M19-MEL, > 100 µM (inactive). The GI50 in the experiment with DMS-114, with DMS-273, in the experiment with SR, with SK-OV-3, in the experiment on SF-268 and in the experiment with DLD-1 was > 100 µM (inactive) in each case. Besides, the GI50 in the experiment on HCT-116 is > 100 µM (inactive).

For `Cc1nn(C(=O)c2ccncc2)c2c1C(c1ccccc1O)SC(=N)N2` (centres undefined), the GI50 in the experiment with HCT-15 is > 10 µM; with HT-29, > 10 µM (inactive); in the experiment with A549 it was > 10 µM (inactive); in the experiment on NCI-H460 it was > 10 µM (inactive); in the experiment with U-251, > 10 µM (inactive); with DU-145, > 10 µM (inactive). Also, the GI50 in the experiment on NCI/ADR-RES, in the experiment on SR, with SK-OV-3, in the experiment with MDA-MB-435, in the experiment with T47D and in the experiment on MCF7 was > 10 µM (inactive) in each case. Also, the GI50 in the experiment on PC-3, in the experiment on SF-268 and in the experiment with HCT-116 was > 10 µM (inactive) throughout.

Regarding `CCC1=C(CC)C1(C#N)[N+](=O)[O-]`, the GI50 in the experiment with HCT-15 was > 100 µM; with HT-29 it was > 100 µM (inactive); in the experiment on A549, > 100 µM (inactive); in the experiment with NCI-H460 it was > 100 µM (inactive); with U-251, > 100 µM (inactive); in the experiment with M19-MEL, > 100 µM (inactive). Further, the GI50 with DMS-114, in the experiment with DMS-273, in the experiment with SR, in the experiment on SK-OV-3, in the experiment on SF-268 and in the experiment with DLD-1 was > 100 µM (inactive) in each case. For the same compound, the GI50 with HCT-116 was > 100 µM (inactive).

As for `CC(C)c1cccc(C(C)C)c1NC(=O)CCC(=O)NN`, the GI50 is 18 µM in the experiment with HCT-15; > 100 µM (inactive) in the experiment on HT-29; > 100 µM (inactive) in the experiment with A549; 84.9 µM (inactive) in the experiment on NCI-H460; > 100 µM (inactive) in the experiment with U-251; > 100 µM (inactive) in the experiment with M19-MEL. The GI50 in the experiment with DMS-114 was > 100 µM (inactive); in the experiment on DMS-273, 61.5 µM (inactive); in the experiment with SK-OV-3, > 100 µM (inactive); with SF-268 it was > 100 µM (inactive); with DLD-1, > 100 µM (inactive); in the experiment with HCT-116, 66.4 µM (inactive).

For `Cc1nc2cc(/N=N/c3c(O)ccc4ccccc34)ccc2[nH]1`, the GI50 was 32.3 µM in the experiment with HCT-15; 40.6 µM (inactive) with HT-29; 44.5 µM (inactive) in the experiment on A549; 34.8 µM (inactive) with NCI-H460; 27.3 µM (inactive) in the experiment on U-251; 23.2 µM (inactive) in the experiment with M19-MEL. Further, the GI50 in the experiment with DU-145 is 36 µM (inactive); in the experiment with NCI/ADR-RES, 24.3 µM (inactive); in the experiment with DMS-114 it was 25.8 µM (inactive); in the experiment with DMS-273 it was 19.4 µM (inactive); with SR it was 24.2 µM (inactive); in the experiment with SK-OV-3 it was > 100 µM (inactive). In addition, the GI50 was 23.1 µM (inactive) in the experiment on MDA-MB-435; 21 µM (inactive) with T47D; 21.2 µM (inactive) in the experiment with MCF7; 21 µM (inactive) in the experiment on PC-3; > 68.5 µM (inactive) in the experiment with SF-268; 24 µM (inactive) in the experiment on DLD-1. Moreover, in the experiment on HCT-116, the GI50 was 23.3 µM (inactive).

Regarding `Cc1cc(=O)n(-c2c(C)cccc2Cl)c(/C=C(\O)c2ccncc2)n1`, the GI50 in the experiment on HCT-15 was > 100 µM; in the experiment on HT-29, > 100 µM (inactive); in the experiment on A549, > 100 µM (inactive); in the experiment on NCI-H460, > 100 µM (inactive); with U-251, > 100 µM (inactive); with DMS-114, > 100 µM (inactive). For the same compound, the GI50 in the experiment on DMS-273, in the experiment with SK-OV-3, in the experiment with SF-268, with DLD-1 and in the experiment with HCT-116 was > 100 µM (inactive) in each case.

As for `CC1=C(NC(=O)C(=O)NNC(=O)c2ccncc2)C(=O)c2ccccc2C1=O`, the GI50 with HCT-15 is 12.4 µM; with HT-29, 15.5 µM (inactive); with A549 it was 13.6 µM (inactive); in the experiment with NCI-H460, 4.44 µM (inactive); in the experiment on U-251, 9.04 µM (inactive); in the experiment with M19-MEL it was 1.64 µM (inactive). Further, the GI50 in the experiment on DMS-114 was 4.76 µM (inactive); with DMS-273, 5.48 µM (inactive); in the experiment with SR, 9.12 µM (inactive); with SK-OV-3, 28.1 µM (inactive); in the experiment on SF-268, 23.6 µM (inactive); in the experiment on DLD-1, 13.8 µM (inactive). In the experiment on HCT-116, the GI50 is 11.4 µM (inactive).

`CC(C)c1ccc(Cc2ccc(C(C)C)c(NC(=O)C(=O)Cc3cnc4ccccc4n3)c2C(C)C)c(C(C)C)c1NC(=O)C(=O)Cc1cnc2ccccc2n1`: the GI50 was > 100 µM with HCT-15; > 100 µM (inactive) with A549; > 100 µM (inactive) in the experiment on NCI-H460; > 100 µM (inactive) with U-251; > 100 µM (inactive) in the experiment on M19-MEL; > 100 µM (inactive) in the experiment with DMS-114. Further, the GI50 in the experiment on SK-OV-3, in the experiment on DLD-1 and in the experiment on HCT-116 was > 100 µM (inactive) each time.

Turning to `Oc1nnc2c(-c3ccccc3)n[nH]c2n1`, the GI50 with HCT-15 was > 100 µM; in the experiment with HT-29, > 100 µM (inactive); in the experiment on A549, 14.2 µM (inactive); in the experiment with NCI-H460 it was > 100 µM (inactive); in the experiment with U-251, > 100 µM (inactive); with DMS-114, > 100 µM (inactive). Moreover, the GI50 in the experiment with DMS-273, in the experiment on SR, in the experiment with SF-268, in the experiment with DLD-1 and with HCT-116 was > 100 µM (inactive) each time.

Take `O=C(O)c1ccc(Nc2nc3nn(Cc4ccccc4)cc3c(=O)s2)cc1`: the GI50 in the experiment on HCT-15 is > 100 µM; in the experiment on A549 it was > 100 µM (inactive); in the experiment on NCI-H460, > 100 µM (inactive); in the experiment on U-251, > 100 µM (inactive); in the experiment with M19-MEL, > 100 µM (inactive); in the experiment with DMS-114, > 100 µM (inactive). Also, the GI50 with DMS-273, in the experiment with SR, with SK-OV-3, in the experiment on SF-268, with DLD-1 and in the experiment with HCT-116 was > 100 µM (inactive) throughout.

Consider `Oc1cccc(C2SCc3nc4ccccc4n32)c1` (centres undefined), for which the GI50 in the experiment with HT-29 is > 100 µM (inactive); in the experiment with A549, 54.7 µM (inactive); in the experiment with NCI-H460, 60.7 µM (inactive); with U-251, 84.5 µM (inactive); with DMS-114, 31 µM (inactive); in the experiment with DMS-273 it was 47.1 µM (inactive). Further, the GI50 with SR was 48.8 µM (inactive); with SK-OV-3, > 100 µM (inactive); with SF-268, 73.6 µM (inactive); with DLD-1, 44.3 µM (inactive); with HCT-116, 67.9 µM (inactive).

Consider `CCOC(C)OCC#CCCBr` (centres undefined), for which the GI50 in the experiment with HCT-15 is > 100 µM; in the experiment with HT-29, > 100 µM (inactive); in the experiment on A549, > 100 µM (inactive); in the experiment on NCI-H460, > 100 µM (inactive); in the experiment on U-251, > 100 µM (inactive); with M19-MEL, > 100 µM (inactive). Also, the GI50 in the experiment on DMS-114 was 79.1 µM (inactive); in the experiment on DMS-273 it was > 100 µM (inactive); in the experiment on SK-OV-3, > 100 µM (inactive); in the experiment on SF-268 it was > 100 µM (inactive); in the experiment on DLD-1, > 100 µM (inactive); with HCT-116, > 100 µM (inactive).

In the case of `CC1=C2C(=CC(C)(CO)C2O)C(=O)C(C)(O)C12CC2` (centres undefined), the GI50 in the experiment with HCT-15 is 0.00197 µM; in the experiment with HT-29 it was 0.00154 µM (active); in the experiment with A549, 0.00254 µM (active); in the experiment on NCI-H460, 0.000668 µM (active); with U-251 it was 0.00102 µM (active); with M19-MEL it was 0.00337 µM (active). In addition, the GI50 in the experiment with DMS-114 is 0.00205 µM (active); with DMS-273, 0.00162 µM (active); in the experiment on SR, 0.00347 µM (active); with SK-OV-3, 0.005 µM (active); in the experiment with SF-268 it was 0.00114 µM (active); in the experiment with DLD-1 it was 0.00895 µM (active). In addition, in the experiment with HCT-116, the GI50 is 0.00123 µM (active).

Take `C[C@@H]1C[C@H](O)[C@]2(O)O[C@@H]3C[C@@]4(C=O)[C@@H](CC[C@@H]5[C@@H]4CC[C@]4(C)[C@@H](C6=CC(=O)OC6)CC[C@]54O)C[C@H]3O[C@@H]2O1` [CALOTROPIN]: the GI50 in the experiment with HCT-15 is 0.0327 µM; with HT-29, 0.0425 µM (active); with A549, 0.014 µM (active); in the experiment on NCI-H460, 0.0187 µM (active); with U-251, 0.034 µM (active); in the experiment on DU-145, 0.0134 µM (active). The GI50 in the experiment with NCI/ADR-RES was 0.0206 µM (active); in the experiment on SR it was 0.0181 µM (active); in the experiment with SK-OV-3 it was 0.0351 µM (active); in the experiment on MDA-MB-435 it was 0.0675 µM (active); in the experiment on T47D, 0.0303 µM (active); in the experiment with MCF7, 0.0238 µM (active). Moreover, the GI50 in the experiment on PC-3 was 0.0234 µM (active); in the experiment with SF-268 it was 0.0406 µM (active); in the experiment with HCT-116 it was 0.0193 µM (active).

For the origin of these results see ChEMBL document CHEMBL1201862, “PubChem BioAssay data set” (2004).
